The source of these data is patent publication US9938281B2 (Merck Sharp & Dohme Corp., priority 2012, dated 2018).

One test addresses T1, PI3K-alpha (Homo sapiens, UniProt P42336).
T1 construct: purchased Upstate; Millipore 14-602
Briefly: HTRF PI3K biochemical assay, alpha isoform. To be noted: ratio PI3K-alpha IC50 value / PI3K-delta IC50 value.

Another test has as its target T2, PI3K-delta (Homo sapiens, UniProt O00329).
T2 construct: purchased Upstate; Millipore 14-604
Briefly: HTRF PI3K biochemical assay, delta isoform. To be noted: form screened (neutral or TFA salt) given, read-out: PI3Kdelta IC50.

T1 sequence (P42336 whole entry): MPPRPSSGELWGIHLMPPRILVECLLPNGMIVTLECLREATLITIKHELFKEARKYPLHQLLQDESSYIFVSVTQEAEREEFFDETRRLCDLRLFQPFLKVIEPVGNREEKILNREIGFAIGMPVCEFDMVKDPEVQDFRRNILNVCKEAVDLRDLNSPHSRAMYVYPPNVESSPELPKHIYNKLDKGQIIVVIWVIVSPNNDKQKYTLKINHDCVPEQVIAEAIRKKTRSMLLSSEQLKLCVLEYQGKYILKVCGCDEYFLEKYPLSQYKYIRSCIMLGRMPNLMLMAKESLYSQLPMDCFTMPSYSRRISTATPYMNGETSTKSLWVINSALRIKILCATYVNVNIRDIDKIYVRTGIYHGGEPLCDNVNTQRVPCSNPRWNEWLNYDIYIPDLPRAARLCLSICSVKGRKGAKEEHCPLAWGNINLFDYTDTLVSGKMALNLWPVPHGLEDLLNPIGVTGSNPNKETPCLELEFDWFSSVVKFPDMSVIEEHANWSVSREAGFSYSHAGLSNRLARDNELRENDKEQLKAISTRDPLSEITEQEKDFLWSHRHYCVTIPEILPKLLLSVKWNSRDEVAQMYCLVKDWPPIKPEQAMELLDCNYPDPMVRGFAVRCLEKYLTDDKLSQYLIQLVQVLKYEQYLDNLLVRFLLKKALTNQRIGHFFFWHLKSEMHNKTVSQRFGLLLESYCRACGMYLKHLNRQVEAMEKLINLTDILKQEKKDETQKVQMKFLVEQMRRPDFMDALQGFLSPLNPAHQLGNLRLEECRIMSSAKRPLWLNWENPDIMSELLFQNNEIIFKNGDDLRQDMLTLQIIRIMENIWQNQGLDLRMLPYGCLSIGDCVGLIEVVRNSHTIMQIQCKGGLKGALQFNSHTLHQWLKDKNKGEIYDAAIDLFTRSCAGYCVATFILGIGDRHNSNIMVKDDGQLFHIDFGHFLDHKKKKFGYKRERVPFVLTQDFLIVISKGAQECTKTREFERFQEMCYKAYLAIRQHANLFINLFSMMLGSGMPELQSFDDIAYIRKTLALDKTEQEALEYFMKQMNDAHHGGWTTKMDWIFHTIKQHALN
T1 sequence (P27986 whole entry partner): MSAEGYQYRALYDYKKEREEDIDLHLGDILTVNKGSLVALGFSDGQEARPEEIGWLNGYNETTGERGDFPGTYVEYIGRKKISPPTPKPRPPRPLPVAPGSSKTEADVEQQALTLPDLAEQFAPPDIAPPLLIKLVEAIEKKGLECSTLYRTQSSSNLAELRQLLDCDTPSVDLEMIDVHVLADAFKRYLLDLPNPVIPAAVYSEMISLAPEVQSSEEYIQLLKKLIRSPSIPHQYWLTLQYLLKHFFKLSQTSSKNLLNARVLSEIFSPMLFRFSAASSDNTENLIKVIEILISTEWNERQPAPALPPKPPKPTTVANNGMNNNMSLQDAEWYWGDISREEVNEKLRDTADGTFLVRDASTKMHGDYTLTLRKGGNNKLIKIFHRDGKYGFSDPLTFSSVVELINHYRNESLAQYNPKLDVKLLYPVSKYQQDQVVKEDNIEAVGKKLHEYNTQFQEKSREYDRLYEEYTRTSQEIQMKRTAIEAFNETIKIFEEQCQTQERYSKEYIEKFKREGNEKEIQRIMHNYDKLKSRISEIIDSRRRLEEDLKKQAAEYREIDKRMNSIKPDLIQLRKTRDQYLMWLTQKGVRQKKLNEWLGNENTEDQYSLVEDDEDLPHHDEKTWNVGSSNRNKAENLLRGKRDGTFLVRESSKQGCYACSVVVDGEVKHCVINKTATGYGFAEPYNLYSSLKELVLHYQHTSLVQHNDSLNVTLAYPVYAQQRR
T2 sequence (O00329 whole entry): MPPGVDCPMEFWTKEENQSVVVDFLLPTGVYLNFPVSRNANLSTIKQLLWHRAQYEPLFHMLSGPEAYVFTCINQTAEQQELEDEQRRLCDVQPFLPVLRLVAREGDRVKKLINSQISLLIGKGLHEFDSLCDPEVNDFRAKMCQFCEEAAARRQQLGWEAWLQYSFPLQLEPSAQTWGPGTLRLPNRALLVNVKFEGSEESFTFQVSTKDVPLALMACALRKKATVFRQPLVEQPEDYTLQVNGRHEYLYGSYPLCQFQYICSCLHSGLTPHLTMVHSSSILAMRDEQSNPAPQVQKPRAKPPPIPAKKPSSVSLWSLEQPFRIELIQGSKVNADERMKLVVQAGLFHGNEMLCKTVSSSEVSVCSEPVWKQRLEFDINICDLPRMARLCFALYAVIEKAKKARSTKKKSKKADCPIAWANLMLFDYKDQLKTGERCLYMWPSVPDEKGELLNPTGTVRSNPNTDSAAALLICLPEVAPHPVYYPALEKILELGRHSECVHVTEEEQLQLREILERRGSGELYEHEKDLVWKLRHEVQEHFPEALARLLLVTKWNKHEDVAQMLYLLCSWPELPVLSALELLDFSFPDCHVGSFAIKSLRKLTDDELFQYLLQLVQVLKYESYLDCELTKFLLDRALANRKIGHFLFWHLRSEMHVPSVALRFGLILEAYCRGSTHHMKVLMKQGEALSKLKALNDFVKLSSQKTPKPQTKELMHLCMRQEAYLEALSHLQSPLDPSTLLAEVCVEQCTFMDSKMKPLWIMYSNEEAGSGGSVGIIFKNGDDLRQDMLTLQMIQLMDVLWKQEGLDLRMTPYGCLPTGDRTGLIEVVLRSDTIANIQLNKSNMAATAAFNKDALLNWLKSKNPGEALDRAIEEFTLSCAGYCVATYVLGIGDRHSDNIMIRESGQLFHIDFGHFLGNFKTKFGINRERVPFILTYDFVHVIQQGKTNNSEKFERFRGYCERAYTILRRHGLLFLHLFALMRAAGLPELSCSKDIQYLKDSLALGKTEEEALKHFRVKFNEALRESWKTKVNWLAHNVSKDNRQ
T2 sequence (P27986 whole entry partner): as the sequence (P27986 whole entry partner) above

Take `CCn1c(CCOC)nc2c(N[C@H]3CCN(C(=O)C4CC4)C3)ncnc21` [Compound 7-22, N-[(3S)-1-(cyclopropylcarbonyl)pyrrolidin-3-yl]-9-ethyl-8-(2-methoxyethyl)-9H-purin-6-amine]: the “Selectivity versus PI3Kalpha” value on PI3K-alpha is reported as more than 10. Moreover, on PI3K-delta, the IC50 stood at 230 nM.
`CCn1c(-c2cnc(C)nc2)nc2c(N[C@H]3CCN(c4cccc(OC)n4)C3)ncnc21` [Compound 4-7, 9-ethyl-N-[(3S)-1-(6-methoxypyridin-2-yl)pyrrolidin-3-yl]-8-(2-methylpyrimidin-5-yl)-9H-purin-6-amine]: the “Selectivity versus PI3Kalpha” value on PI3K-alpha is listed as more than 10. The IC50 at PI3K-delta came out at 1.4 nM.
For `CCC(=O)N1CC[C@H](Nc2ncnc3c2nc(-c2cnc(OC)c(C)c2)n3CC)C1` [Compound 2-9, (S)-1-(3-((9-ethyl-8-(6-methoxy-5-methylpyridin-3-yl)-9H-purin-6-yl)amino)pyrrolidin-1-yl)propan-1-one], the “Selectivity versus PI3Kalpha” value on PI3K-alpha is reported as more than 10. The IC50 on PI3K-delta was less than 1 nM.
Taken in the same sequence, the figures for `CCC(=O)N1CC[C@H](Nc2ncnc3c2nc(-c2ncn(CC)c2C)n3C)C1` [Compound 3-12, 8-(1-ethyl-5-methyl-1H-imidazol-4-yl)-9-methyl-N-[(3S)-1-propanoylpyrrolidin-3-yl]-9H-purin-6-amine] were more than 10 and 690 nM.
`CCn1c(-c2cnc(C)nc2)nc2c(N[C@H]3CCN(C(=O)c4ocnc4C)C3)ncnc21` [Compound 2-74, 9-ethyl-N-{(3S)-1-[(4-methyl-1,3-oxazol-5-yl)carbonyl]pyrrolidin-3-yl}-8-(2-methylpyrimidin-5-yl)-9H-purin-6-amine]: at PI3K-alpha, the “Selectivity versus PI3Kalpha” value is reported as more than 10. Moreover, on PI3K-delta, the IC50 was found to be 3.1 nM.
Taken in the same sequence, the figures for `CCn1c(-c2cnc(C)nc2)nc2c(N[C@H]3C[C@H](C(=O)N(C)C)N(C(=O)C4CC4)C3)ncnc21` [Compound 15-2, (4S)-1-(cyclopropylcarbonyl)-4-{[9-ethyl-8-(2-methylpyrimidin-5-yl)-9H-purin-6-yl]amino}-N,N-dimethyl-D-prolinamide] were more than 10 and 14 nM.
Taken in the same sequence, the figures for `CCn1c(-c2cnc(C)nc2)nc2c(N[C@H]3CCN(C(=O)N4CCC4)C3)ncnc21` [Compound 12-9, N-[(3S)-1-(azetidin-1-ylcarbonyl)pyrrolidin-3-yl]-9-ethyl-8-(2-methylpyrimidin-5-yl)-9H-purin-6-amine] were more than 10 and 1.4 nM.
Consider `CCC(=O)N1CC[C@@H](Nc2ncnc3c2nc(-c2cnn(CC)c2C)n3C)C1` [Compound 2-1, 8-(1-ethyl-5-methyl-1H-pyrazol-4-yl)-9-methyl-N-[(3R)-1-propanoylpyrrolidin-3-yl]-9H-purin-6-amine], for which, at PI3K-alpha, the “Selectivity versus PI3Kalpha” value was more than 10. Further, the IC50 at PI3K-delta is 32 nM.
Taken in the same sequence, the figures for `CCn1c(-c2cnc(C)nc2)nc2c(N[C@H]3CCN(C(=O)[C@H]4C[C@H]4C)C3)ncnc21` [Compound 2-91, 9-ethyl-N-[(3S)-1-{[(1S,2R)-2-methylcyclopropyl]carbonyl}pyrrolidin-3-yl]-8-(2-methylpyrimidin-5-yl)-9H-purin-6-amine] were more than 10 and 12 nM.
Consider `CCn1c(-c2cnc(C)nc2)nc2c(N[C@H]3C[C@H](C(N)=O)N(c4ccccn4)C3)ncnc21` [Compound 15-11, (4S)-4-{[9-ethyl-8-(2-methylpyrimidin-5-yl)-9H-purin-6-yl]amino}-1-pyridin-2-yl-D-prolinamide], for which, on PI3K-alpha, the “Selectivity versus PI3Kalpha” value is listed as more than 10. Also, on PI3K-delta, the IC50 was 7.7 nM.
Taken in the same sequence, the figures for `CCn1c(-c2cnc(C)nc2)nc2c(N[C@H]3CCN(C(=O)[C@@H]4C[C@H]4C)C3)ncnc21` [Compound 2-92, 9-ethyl-N-[(3S)-1-{[(1R,2R)-2-methylcyclopropyl]carbonyl}pyrrolidin-3-yl]-8-(2-methylpyrimidin-5-yl)-9H-purin-6-amine] were more than 10 and less than 1 nM.
For `CCn1c(C(=O)N2CCOCC2)nc2c(N[C@H]3CCN(C(=O)C4CC4)C3)ncnc21` [Compound 6-4, N-[(3S)-1-(cyclopropylcarbonyl)pyrrolidin-3-yl]-9-ethyl-8-(morpholin-4-ylcarbonyl)-9H-purin-6-amine], the “Selectivity versus PI3Kalpha” value at PI3K-alpha is reported as more than 10. Moreover, the IC50 on PI3K-delta was found to be 140 nM.
Taken in the same sequence, the figures for `CCC(=O)N1CC[C@H](Nc2ncnc3c2nc(-c2ccc4[nH]ccc4c2)n3C)C1` [Compound 3-8, (S)-1-(3-((8-(1H-indol-5-yl)-9-methyl-9H-purin-6-yl)amino)pyrrolidin-1-yl)propan-1-one] were more than 10 and 14 nM.
Taken in the same sequence, the figures for `CCn1c(-c2cnc(C)nc2)nc2c(N[C@H]3CC[C@@H](C(=O)N(C)C)C3)ncnc21` [Compound 5-4, (1R,3S)-3-{[9-ethyl-8-(2-methylpyrimidin-5-yl)-9H-purin-6-yl]amino}-N,N-dimethylcyclopentanecarbox-amide] were more than 10 and 5.3 nM.
Taken in the same sequence, the figures for `CCn1c(-c2cnc(C)nc2)nc2c(N[C@H]3CCN(C(=O)C4CCCC4)C3)ncnc21` [Compound 2-23, (S)-cyclopentyl(3-((9-ethyl-8-(2-methylpyrimidin-5-yl)-9H-purin-6-yl)amino)pyrrolidin-1-yl)methanone] were more than 10 and 8 nM.
As to `CCn1c(C(F)F)nc2c(N[C@H]3CCN(C(=O)c4cocn4)C3)ncnc21` [Compound 7-16, 8-(difluoromethyl)-9-ethyl-N-[(3S)-1-(1,3-oxazol-4-ylcarbonyl)pyrrolidin-3-yl]-9H-purin-6-amine], the “Selectivity versus PI3Kalpha” value at PI3K-alpha is recorded as more than 10. For the same molecule, the IC50 on PI3K-delta worked out at 120 nM.
Taken in the same sequence, the figures for `CCn1ncc(-c2nc3c(N[C@H]4CCCN(C(=O)OC(C)(C)C)C4)ncnc3n2C)c1C` [Compound 1-12, (S)-tert-butyl 3-((8-(1-ethyl-5-methyl-1H-pyrazol-4-yl)-9-methyl-9H-purin-6-yl)amino)piperidine-1-carboxylate] were more than 10 and 19 nM.
Taken in the same sequence, the figures for `CCC(=O)N1CC[C@H](Nc2ncnc3c2nc(-c2cnn(-c4ccccc4)c2C)n3C)C1` [Compound 3-11, 9-methyl-8-(5-methyl-1-phenyl-1H-pyrazol-4-yl)-N-[(3S)-1-propanoylpyrrolidin-3-yl]-9H-purin-6-amine] were more than 10 and less than 1 nM.
As for `CCn1c(-c2cnc(C)nc2)nc2c(N[C@H]3CCN(C(=O)C4(C#N)CC4)C3)ncnc21` [Compound 2-65, 1-{[(3S)-3-{[9-ethyl-8-(2-methylpyrimidin-5-yl)-9H-purin-6-yl]amino}pyrrolidin-1-yl]carbonyl}cyclopropanecarbo-nitrile], on PI3K-alpha, the “Selectivity versus PI3Kalpha” value was more than 10. The IC50 at PI3K-delta was determined as 11 nM.
With `CCn1c(-c2cnc(C)nc2)nc2c(NC3CCCC(=O)N(CC4CC4)C3)ncnc21` (single isomer, unassigned) [Compound 14-7, (R or S)-1-(cyclopropylmethyl)-6-{[9-ethyl-8-(2-methylpyrimidin-5-yl)-9H-purin-6-yl]amino}azepan-2-one], the “Selectivity versus PI3Kalpha” value at PI3K-alpha is recorded as more than 10. Besides, the IC50 on PI3K-delta was determined as 13 nM.
Taken in the same sequence, the figures for `CCn1c(-n2cnc(C(F)(F)F)c2)nc2c(N[C@H]3CCN(C(=O)C4CC4)C3)ncnc21` [Compound 8-3, N-[(3S)-1-(cyclopropylcarbonyl)pyrrolidin-3-yl]-9-ethyl-8-[4-(trifluoromethyl)-1H-imidazol-1-yl]-9H-purin-6-amine] were more than 10 and 11 nM.
Consider `CCn1ncc(-c2nc3c(N[C@H]4CCN(C(=O)OC(C)(C)C)C4)ncnc3n2CC)c1C` [Compound 1-14, tert-butyl (3S)-3-{[9-ethyl-8-(1-ethyl-5-methyl-1H-pyrazol-4-yl)-9H-purin-6-yl]amino}pyrrolidine-1-carboxylate], for which the “Selectivity versus PI3Kalpha” value on PI3K-alpha is given as more than 10. In addition, the IC50 on PI3K-delta is 1.1 nM.
Consider `CCn1c(C(=O)NCCC(F)(F)F)nc2c(N[C@H]3CCN(C(=O)C4CC4)C3)ncnc21` [Compound 6-17, 6-{[(3S)-1-(cyclopropylcarbonyl)pyrrolidin-3-yl]amino}-9-ethyl-N-(3,3,3-trifluoropropyl)-9H-purine-8-carboxamide], for which the “Selectivity versus PI3Kalpha” value on PI3K-alpha is on record as more than 10. Besides, the IC50 on PI3K-delta amounted to 14 nM.
Take `CCn1c(-c2cnc(C)nc2)nc2c(N[C@H]3CCN(C(=O)C4CC4)C3)ncnc21` [Compound 2-21, (S)-cyclopropyl(3-((9-ethyl-8-(2-methylpyrimidin-5-yl)-9H-purin-6-yl)amino)pyrrolidin-1-yl)methanone]: on PI3K-alpha, the “Selectivity versus PI3Kalpha” value is more than 10. In addition, the IC50 on PI3K-delta is less than 1 nM.
`CCn1c(-c2ccc(C(F)(F)F)nc2)nc2c(N[C@H]3CCN(C(=O)C4CCCO4)C3)ncnc21` (single isomer, unassigned) [Compound 2-104, 9-ethyl-N-{(3S)-1-[(2R or 2S)-tetrahydrofuran-2-ylcarbonyl]pyrrolidin-3-yl}-8-[6-(trifluoromethyl)pyridin-3-yl]-9H-purin-6-amine]: at PI3K-alpha, the “Selectivity versus PI3Kalpha” value is more than 10. For the same molecule, on PI3K-delta, the IC50 came to 3.4 nM.
Taken in the same sequence, the figures for `CCC(=O)N1CC[C@H](Nc2ncnc3c2nc(-c2cnc(C)nc2)n3CC)C1` [Compound 2-17, (S)-1-(3-((9-ethyl-8-(2-methylpyrimidin-5-yl)-9H-purin-6-yl)amino)pyrrolidin-1-yl)propan-1-one] were more than 10 and 2.7 nM.
`CCC(=O)N1CC(Nc2ncnc3c2nc(-c2cnn(CC)c2C)n3C)C1` [Compound 2-45, 8-(1-ethyl-5-methyl-1H-pyrazol-4-yl)-9-methyl-N-(1-propanoylazetidin-3-yl)-9H-purin-6-amine]: the “Selectivity versus PI3Kalpha” value at PI3K-alpha is reported as more than 10. Further, the IC50 at PI3K-delta was determined as 57 nM.
As for `CCC(=O)N1CC[C@H](Nc2ncnc3c2nc(-c2cnn(CC)c2C)n3C)C1` [Compound 2-3, (S)-1-(3-((8-(1-ethyl-5-methyl-1H-pyrazol-4-yl)-9-methyl-9H-purin-6-yl)amino)pyrrolidin-1-yl)propan-1-one], the “Selectivity versus PI3Kalpha” value at PI3K-alpha is listed as more than 10. Further, the IC50 at PI3K-delta was less than 1 nM.
